The text below walks through data of paper PMC6295861, “Privileged Structures and Polypharmacology within and between Protein Families” (ACS Medicinal Chemistry Letters, 2018).

SMILES strings stand for the structures. Values joined by “and” are separate entries in the source; they are usually repeats but may differ in a detail not shown here. Equal values may be shown once.

One assay concerns the target HIPK2 (Homo sapiens, UniProt Q9H2X6). The assay is described as follows: Radio labeled filter binding kinase assay, HIPK2. The class given is biochemical.
Assay [1] concerns the target cyclin-dependent kinase 9 (CDK9). Also noted: method as in PMID 27746890. Particulars: cited from earlier work.
Another assay addresses T1, TAOK1 (Homo sapiens, UniProt Q7L7X3).
T1 sequence (Q7L7X3 1-1001): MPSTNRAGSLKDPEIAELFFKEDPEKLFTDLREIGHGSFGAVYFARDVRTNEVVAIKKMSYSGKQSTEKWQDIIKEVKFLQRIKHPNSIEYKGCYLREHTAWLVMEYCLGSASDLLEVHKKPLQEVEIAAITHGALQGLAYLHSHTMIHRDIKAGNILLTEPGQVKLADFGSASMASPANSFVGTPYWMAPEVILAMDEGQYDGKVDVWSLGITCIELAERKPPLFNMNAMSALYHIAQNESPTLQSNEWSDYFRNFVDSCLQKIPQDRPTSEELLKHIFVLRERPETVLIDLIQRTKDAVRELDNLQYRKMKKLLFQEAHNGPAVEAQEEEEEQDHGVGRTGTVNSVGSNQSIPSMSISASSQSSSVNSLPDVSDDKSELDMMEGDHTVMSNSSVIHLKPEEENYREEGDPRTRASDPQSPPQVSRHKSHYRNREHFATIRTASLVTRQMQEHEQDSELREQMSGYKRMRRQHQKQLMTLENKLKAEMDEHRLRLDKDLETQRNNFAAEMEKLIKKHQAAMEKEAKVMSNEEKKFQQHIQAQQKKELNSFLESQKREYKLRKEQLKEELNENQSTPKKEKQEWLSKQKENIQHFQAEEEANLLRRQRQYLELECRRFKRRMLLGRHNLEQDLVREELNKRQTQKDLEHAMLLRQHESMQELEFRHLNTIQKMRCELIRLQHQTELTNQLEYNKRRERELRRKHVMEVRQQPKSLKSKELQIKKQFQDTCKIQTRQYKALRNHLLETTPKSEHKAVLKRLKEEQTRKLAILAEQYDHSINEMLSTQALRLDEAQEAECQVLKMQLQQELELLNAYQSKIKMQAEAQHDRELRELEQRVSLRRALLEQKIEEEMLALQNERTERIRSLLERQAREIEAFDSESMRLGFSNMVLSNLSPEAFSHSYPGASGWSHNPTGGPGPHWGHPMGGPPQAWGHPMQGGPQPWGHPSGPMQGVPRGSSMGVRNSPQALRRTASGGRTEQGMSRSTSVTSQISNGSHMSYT
Kind of assay: Radio labeled filter binding kinase assay, TAOK1. The class given is biochemical. Particulars: mean of duplicates.

A further assay has as its target B-Raf (WT) (Homo sapiens, UniProt P15056). Kind of assay: B-Raf Z'-LYTE cascade kinase assay (SelectScreen). The class given is biochemical. Conditions: ATP 100 μM, points 1 and 2, listed as CCT363294-01.

B-Raf (WT), sequence (P15056 whole entry): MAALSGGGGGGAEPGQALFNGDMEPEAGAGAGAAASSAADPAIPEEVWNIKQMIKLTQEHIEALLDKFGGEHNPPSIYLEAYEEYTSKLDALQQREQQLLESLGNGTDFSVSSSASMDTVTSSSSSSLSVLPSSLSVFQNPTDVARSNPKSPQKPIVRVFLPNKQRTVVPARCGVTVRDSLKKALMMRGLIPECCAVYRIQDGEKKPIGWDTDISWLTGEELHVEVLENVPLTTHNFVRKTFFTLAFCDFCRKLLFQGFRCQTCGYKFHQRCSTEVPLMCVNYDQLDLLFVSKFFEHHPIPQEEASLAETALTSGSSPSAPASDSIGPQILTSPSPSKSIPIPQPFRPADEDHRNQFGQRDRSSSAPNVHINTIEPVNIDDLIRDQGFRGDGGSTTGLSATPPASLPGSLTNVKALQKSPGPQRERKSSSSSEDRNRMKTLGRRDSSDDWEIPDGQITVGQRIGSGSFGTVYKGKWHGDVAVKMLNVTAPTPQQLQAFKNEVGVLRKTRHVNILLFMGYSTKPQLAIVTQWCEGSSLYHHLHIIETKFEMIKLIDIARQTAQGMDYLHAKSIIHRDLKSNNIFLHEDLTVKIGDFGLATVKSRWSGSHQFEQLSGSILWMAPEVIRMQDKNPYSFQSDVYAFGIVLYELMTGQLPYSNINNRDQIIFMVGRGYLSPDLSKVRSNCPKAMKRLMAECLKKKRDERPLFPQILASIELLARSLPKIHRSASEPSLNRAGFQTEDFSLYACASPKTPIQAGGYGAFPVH
HIPK2, sequence (Q9H2X6 whole entry): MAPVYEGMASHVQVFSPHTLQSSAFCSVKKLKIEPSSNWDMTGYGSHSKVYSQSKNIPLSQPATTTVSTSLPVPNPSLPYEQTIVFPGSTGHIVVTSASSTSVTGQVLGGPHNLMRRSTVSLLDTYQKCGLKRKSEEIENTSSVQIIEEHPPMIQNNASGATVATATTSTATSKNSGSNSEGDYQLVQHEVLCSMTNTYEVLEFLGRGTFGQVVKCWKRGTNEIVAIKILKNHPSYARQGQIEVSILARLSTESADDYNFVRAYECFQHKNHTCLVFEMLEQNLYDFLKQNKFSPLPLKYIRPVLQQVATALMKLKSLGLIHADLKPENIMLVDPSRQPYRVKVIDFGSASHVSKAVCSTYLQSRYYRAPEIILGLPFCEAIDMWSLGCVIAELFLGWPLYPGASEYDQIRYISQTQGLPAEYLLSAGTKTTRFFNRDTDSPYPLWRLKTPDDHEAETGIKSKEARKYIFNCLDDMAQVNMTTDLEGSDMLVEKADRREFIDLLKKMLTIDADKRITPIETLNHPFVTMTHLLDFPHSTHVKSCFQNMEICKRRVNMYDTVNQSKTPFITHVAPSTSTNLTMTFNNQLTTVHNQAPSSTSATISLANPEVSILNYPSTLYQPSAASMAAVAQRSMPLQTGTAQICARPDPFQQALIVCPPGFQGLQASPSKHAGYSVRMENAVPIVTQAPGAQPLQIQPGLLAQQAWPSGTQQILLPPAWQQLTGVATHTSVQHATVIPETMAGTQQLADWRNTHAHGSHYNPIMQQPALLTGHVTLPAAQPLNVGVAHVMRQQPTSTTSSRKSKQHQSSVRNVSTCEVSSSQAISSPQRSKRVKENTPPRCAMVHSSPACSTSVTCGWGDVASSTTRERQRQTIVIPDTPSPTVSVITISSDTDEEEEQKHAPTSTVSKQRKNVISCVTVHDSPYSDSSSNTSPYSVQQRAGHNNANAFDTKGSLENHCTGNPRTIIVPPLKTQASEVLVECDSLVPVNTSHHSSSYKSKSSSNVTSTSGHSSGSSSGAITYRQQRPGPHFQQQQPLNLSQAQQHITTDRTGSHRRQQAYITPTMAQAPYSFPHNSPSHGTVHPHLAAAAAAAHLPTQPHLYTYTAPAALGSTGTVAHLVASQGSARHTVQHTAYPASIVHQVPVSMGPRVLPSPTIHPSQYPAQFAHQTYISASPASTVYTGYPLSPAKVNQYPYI

Consider `c1cnc2ncn(-c3cc(Nc4ccc(OCCN5CCCCC5)cn4)ncn3)c2c1` [Compd 1], for which the activity at 0.0003 µM at HIPK2 (0.0003 µM compound, duplicates) turned out to be 99%; at TAOK1 (0.0003 µM compound), 108%. For the same compound, the HIPK2 % activity at HIPK2 (0.0003 µM compound, duplicates, listed as CCT250006, 0.0003 µM) is 95%; at HIPK2 (0.001 µM compound, duplicates, listed as CCT250006, 0.001 µM), 107%; on HIPK2 (0.003 µM compound, duplicates, listed as CCT250006, 0.003 µM), 95% and 121%; at HIPK2 (0.01 µM compound, duplicates, listed as CCT250006, 0.01 µM) it was 88%; on HIPK2 (0.03 µM compound, duplicates, listed as CCT250006, 0.03 µM), 39%; on HIPK2 (0.1 µM compound, duplicates, listed as CCT250006, 0.1 µM) it was 35%. The HIPK2 % activity is 11% at HIPK2 (0.3 µM compound, duplicates, listed as CCT250006, 0.3 µM); 5% on HIPK2 (1 µM compound, duplicates, listed as CCT250006, 1 µM); 1% and 4% on HIPK2 (3 µM compound, duplicates, listed as CCT250006, 3 µM); 1% and 5% at HIPK2 (10 µM compound, duplicates, listed as CCT250006, 10 µM). Besides, the activity at 0.001 µM on HIPK2 (0.001 µM compound, duplicates) amounted to 94%; at TAOK1 (0.001 µM compound) it was 95%. Moreover, the activity at 0.01 µM was determined as 86% on HIPK2 (0.01 µM compound, duplicates) and 116% at TAOK1 (0.01 µM compound). The activity at 0.03 µM on HIPK2 (0.03 µM compound, duplicates) was 43%; at TAOK1 (0.03 µM compound), 109%. The activity at 0.1 µM at HIPK2 (0.1 µM compound, duplicates) is 26%; at TAOK1 (0.1 µM compound), 82%. Also, the activity at 0.3 µM turned out to be 9% at HIPK2 (0.3 µM compound, duplicates) and 69% at TAOK1 (0.3 µM compound). In addition, the activity at 1 µM was 6% on HIPK2 (1 µM compound, duplicates) and 46% at TAOK1 (1 µM compound). Besides, the half-inhibitory concentration (IC50) – broadly, the concentration that gives 50% inhibition – was 0.0272 µM at HIPK2 (SI Table S5, unit inferred, one per duplicate curve, read-out: HIPK2 IC50, fitted values above the IC50(µM) line) and no more than 3 nM in assay [1]. Moreover, on TAOK1 (0.003 µM compound), the activity at 0.003 µM is 111%. Further, the activity at 3 µM on TAOK1 (3 µM compound) is 20%. Further, the activity at 10 µM on TAOK1 (10 µM compound) is 11%.

`CC(C)(C)N1CCN(Cc2ccc3cc(C(=O)Nc4cc(NC(=O)c5ccc6c(c5)OCCO6)ccc4Cl)ccc3n2)CC1` [Compd 8, 2-((4-(tert-butyl)piperazin-1-yl)methyl)-N-(2-chloro-5-(2,3-dihydrobenzo[b][1,4]dioxine-6-carboxamido)phenyl)quinoline-6-carboxamide]: the “% Inhibition BRAF” value is -10% and -14% at B-Raf (WT) (1.52 nM compound); -17% and -16% on B-Raf (WT) (13.7 nM compound); -36% and -33% at B-Raf (WT) (41.2 nM compound); -22% and -28% on B-Raf (WT) (123 nM compound); -4% and -8% on B-Raf (WT) (1110 nM compound); 6% and -3% at B-Raf (WT) (3330 nM compound).
